pEC50: −log10 of the molar value.
Target: T1, human TLR7 (Homo sapiens, UniProt Q9NYK1)
T1 construct: host or cells: HEK-Blue hTLR7 cells (HEK293-derived reporter line; that the line is stably transfected with the human TLR7 gene is own knowledge of the vendor's product)
T1 sequence (Q9NYK1 27-1049): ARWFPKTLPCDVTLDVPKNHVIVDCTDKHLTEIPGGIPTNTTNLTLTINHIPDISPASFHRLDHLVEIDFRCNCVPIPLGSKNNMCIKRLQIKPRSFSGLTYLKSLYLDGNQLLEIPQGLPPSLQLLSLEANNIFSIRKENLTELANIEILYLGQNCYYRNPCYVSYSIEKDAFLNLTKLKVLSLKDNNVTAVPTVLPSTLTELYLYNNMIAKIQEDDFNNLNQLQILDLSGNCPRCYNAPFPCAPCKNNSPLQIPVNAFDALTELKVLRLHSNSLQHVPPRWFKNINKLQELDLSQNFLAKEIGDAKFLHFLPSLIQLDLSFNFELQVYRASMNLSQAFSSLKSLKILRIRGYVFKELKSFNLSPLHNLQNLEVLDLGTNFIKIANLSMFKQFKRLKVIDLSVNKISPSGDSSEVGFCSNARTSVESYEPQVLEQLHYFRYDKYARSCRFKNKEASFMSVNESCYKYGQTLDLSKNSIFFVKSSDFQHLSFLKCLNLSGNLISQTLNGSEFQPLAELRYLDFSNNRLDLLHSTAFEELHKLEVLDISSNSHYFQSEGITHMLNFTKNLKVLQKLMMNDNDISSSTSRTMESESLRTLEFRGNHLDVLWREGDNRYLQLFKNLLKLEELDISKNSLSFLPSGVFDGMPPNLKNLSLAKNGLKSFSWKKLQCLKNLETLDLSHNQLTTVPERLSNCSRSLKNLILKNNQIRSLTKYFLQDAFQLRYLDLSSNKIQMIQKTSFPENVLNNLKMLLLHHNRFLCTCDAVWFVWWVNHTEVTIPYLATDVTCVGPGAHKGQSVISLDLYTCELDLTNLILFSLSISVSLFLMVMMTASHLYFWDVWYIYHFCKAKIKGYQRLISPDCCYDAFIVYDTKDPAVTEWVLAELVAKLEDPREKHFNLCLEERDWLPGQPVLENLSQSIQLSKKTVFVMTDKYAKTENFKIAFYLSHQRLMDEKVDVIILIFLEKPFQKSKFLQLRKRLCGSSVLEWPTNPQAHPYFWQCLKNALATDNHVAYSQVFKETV
Assay: Agonistic activity of compounds on HEK-Blue hTLR7 cells (QUANTI-Blue reporter, OD620)
Format: cell-based
Conditions: for pEC50 / Emax: HEK-Blue hTLR7 cells; for pEC50: 20 h incubation; for Emax: OD620 at which the activation effect reached the maximum; for activation effect on human TLR7: summary in words
Method: • 1. HEK-Blue hTLR7 cells (Invivogen) were cultured in DMEM medium (Hyclone) containing 10% FBS heat-inactivated fetal bovine serum (Corning). On the day of detection, the cell state was observed under a microscope, the cells were collected and resuspended, and the cell concentration was adjusted after counting, 50 µL per well, the total amount of cells was 2×10^4, and the cells were inoculated in a 96-well plate. • 2. After the cells adhered to the wall overnight, 50 µL of the test compound at different concentrations was added into the well plate, so that the final concentrations were 100 µM, 33.3 µM, 11.11 µM, 3.70 µM, 1.23 µM, 0.41 µM, 0.14 µM, 0.05 µM, 0 µM, and the final concentration of DMSO was 1%. The compound was incubated with the cells in a 37°C, 5% CO2 incubator for 20 h. • 3. After the incubation, observation under microscope was performed to determine the maximum signal well, the states of the cells with the highest and lowest concentrations of the compound, and whether the compound will crystalize at high concentration. 10 µL of cell culture supernatant was taken and transferred to a new 96-well transparent plate, 90 µL of QUANTI-Blue (Invivogen) detection reagent was added to each well, and incubated at 37°C for 3 h, and OD620 was read with a multifunctional microplate reader (BMG LABTECH). • 4. EC50 was calculated by fitting with Graphpad Prism software log(agonist) vs. response - Variable slope, and Emax was the OD620 at which the activation effect of the test compound reached the maximum.

Row | pEC50 | Emax [OD620] | activation effect on human TLR7 | Structure (SMILES)
1 | 5.62 | 1.74 | strong activation effect | COCCc1nc2c(N)nc3ccsc3c2n1CCCCN [Compound 4, 1-(4-aminobutyl)-2-(2-methoxyethyl)-1H-imidazo[4,5-d]thieno[3,2-b]pyridine-4-amine]
2 | 5.49 | 1.46 | strong activation effect | CCOCc1nc2c(N)nc3ccsc3c2n1CCCCN [Compound 5, 1-(4-aminobutyl)-2-(2-ethoxymethyl)-1H-imidazo[4,5-d] thieno[3,2-b]pyridine-4-amine]
3 | 5.85 | 2.40 | strong activation effect | CCCCc1nc2c(N)nc3cc(C)sc3c2n1CC1CCN(CCOCCOCCN)CC1 [Compound 15, 1-((1-(2-(2-(2-aminoethoxy)ethoxy)ethyl)piperidin-4-yl)methyl)-2-butyl-7-methyl-1H-imidazo[4,5-d]thieno[3,2-b]pyridine-4-amine]
4 | 5.77 | 2.18 | strong activation effect | CCCCc1nc2c(N)nc3cc(C)sc3c2n1CC1CCN(CCOCCOCCOCCOCCOCCOCCOC)CC1 [Compound 16, 1-((1-(2,5,8,11,14,17,20-heptaoxadocosan-22-yl)piperidin-4-yl)methyl)-2-butyl-7-methyl-1H-imidazo[4,5-d]thieno[3,2-b]pyridine-4-amine]
5 | 5.94 | 2.23 | strong activation effect | CCCCc1nc2c(N)nc3cc(C)sc3c2n1CC1CCN(C(=O)CCOCCOCCN)CC1 [Compound 17, 1-(4-((4-amino-2-butyl-7-methyl-1H-imidazo[4,5-d]thieno[3,2-b]pyridin-1-yl)methyl)piperidin-1-yl)-3-(2-(2-aminoethoxy)ethoxy)propan-1-one]
6 | 6.85 | 2.08 | strong activation effect | CCCCc1nc2c(N)nc3ccsc3c2n1CC1CCNCC1 [Compound 25, 2-butyl-1-(piperidin-4-ylmethyl)-1H-imidazo[4,5-d]thieno[3,2-b] pyridine-4-amine]
7 | 7.30 | 1.78 | strong activation effect | CCCCc1nc2c(N)nc3cc(C)sc3c2n1CC1CCOCC1 [Compound 26, 2-butyl-7-methyl-1-((tetrahydro-2H-pyran-4-yl)methyl)-1H-imidazo[4,5-d]thieno[3,2-b]pyridine-4-amine]
8 | 6.70 | 1.39 | strong activation effect | CCCCc1nc2c(N)nc3cc(C)sc3c2n1CC1CCN(C)CC1 [Compound 28, 2-butyl-7-methyl-1-((1-methylpiperidin-4-yl)methyl)-1H-imidazo[4,5-d]thieno[3,2-b]pyridine-4-amine]
9 | 5.90 | 0.91 | strong activation effect | CCCCc1nc2c(N)nc3cc(C4CCN(C)CC4)sc3c2n1C [Compound 32, 2-butyl-1-methyl-7-(1-methylpiperidin-4-yl)-1H-imidazo[4,5-d] thieno[3,2-b]pyridine-4-amine]
10 | 7.08 | 1.21 | strong activation effect | CCCCc1nc2c(N)nc3cc(C4CCN(C)CC4)sc3c2n1CC1CCOCC1 [Compound 34, 2-butyl-7-(1-methylpiperidin-4-yl)-1-((tetrahydro-2H-pyran-4-yl)methyl)-1H-imidazo[4,5-d]thieno[3,2-b]pyridine-4-amine]
11 | 5.89 | 0.49 | strong activation effect | CCCCc1nc2c(N)nc3cc(C4CCN(C)CC4)sc3c2n1CC1CCN(C)CC1 [Compound 38, 2-butyl-7-(1-methylpiperidin-4-yl)-1-((1-methylpiperidin-4-yl)methyl)-1H-imidazo[4,5-d]thieno[3,2-b]pyridine-4-amine]
12 | 6.24 | 1.83 | strong activation effect | CCCCc1nc2c(N)nc3cc(C4CCOCC4)sc3c2n1CC1CCN(C)CC1 [Compound 40, 2-butyl-1-((1-methylpiperidin-4-yl)methyl)-7-(tetrahydro-2H-pyran-4-yl)-1H-imidazo[4,5-d]thieno[3,2-b]pyridine-4-amine]
13 | 5.30 | 0.84 | strong activation effect | CCCCc1nc2c(N)nc3cc(C4CCNCC4)sc3c2n1CC1CCN(CCOC)CC1 [Compound 41, 2-butyl-7-(hexahydropyridin-4-yl)-1-{[1-(2-methoxyethyl)hexahydropyridin-4-yl]methyl}thieno[3,2-b]imidazo[4,5-d]pyridine-4-amine]
14 | 5.84 | 0.65 | strong activation effect | CCCCc1nc2c(N)nc3cc(C4CCN(C)CC4)sc3c2n1CC1CCN(CCOC)CC1 [Compound 42, 2-butyl-1-{[1-(2-methoxyethyl)hexahydropyridin-4-yl]methyl}-7-(1-methylhexahydropyridin-4-yl)thieno[3,2-b]imidazo[4,5-d]pyridine-4-amine]
15 | 5.83 | 1.44 | strong activation effect | COCCc1nc2c(N)nc3ccsc3c2n1CC1CCNCC1 [Compound 55, 1-(hexahydropyridin-4-ylmethyl)-2-(2-methoxyethyl) thieno[3,2-b]imidazo[4,5-d]pyridine-4-amine]
16 | 6.34 | 1.41 | strong activation effect | COCCc1nc2c(N)nc3ccsc3c2n1CC1CCN(C)CC1 [Compound 56, 2-(2-methoxyethyl)-1-[(1-methylhexahydropyridin-4-yl)methyl] thieno[3,2-b]imidazo[4,5-d]pyridine-4-amine]

Row | Structure (SMILES) | pEC50 | Emax [OD620] | activation effect on human TLR7
17 | CCCCc1nc2c(N)nc3cc(C4=CCN(C)CC4)sc3c2[nH]1 [Compound 8, 2-butyl-7-(1-methyl-1,2,3,6-tetrahydropyridin-4-yl)-1H-imidazo [4,5-d]thieno[3,2-b]pyridine-4-amine] | 5.60 | 0.56 | strong activation effect
18 | CCCCc1nc2c(N)nc3cc(C4CCN(C(C)=O)CC4)sc3c2n1CC1CCOCC1 [Compound 59, 1-{4-[4-amino-2-butyl-1-(3,4,5,6-tetrahydro-2H-pyran-4-ylmethyl)thieno[3,2-b]imidazo[4,5-d]pyridin-7-yl]hexahydropyridin-1-yl}ethyl-1-one] | 7.40 | 1.45 | strong activation effect

From patent EP4458830A1, “TRICYCLIC COMPOUND, METHOD FOR PREPARING SAME, AND USE THEREOF” (Sichuan Kelun-Biotech Biopharmaceutical Co., Ltd., priority 2021, dated 2023)
